Measurements taken from patent US11642307B2, “Ambrisentan for use in the treatment of acute renal failure” (Noorik Biopharmaceuticals AG, priority 2016, dated 2023).

How the values were obtained:
[1] = Stability of ambrisentan liquid compositions; type: physicochemical; conditions: use of an autoclave
Excerpt: The liquid compositions of the invention can be prepared using conventional techniques. Typically, the invention pertains to a process for preparing a liquid composition comprising the steps of (a) contacting the endothelin receptor antagonist, preferably ambrisentan, the buffer and the solvent and optionally the excipient and (b) stirring the solution to allow dissolution of the various ingredients, in particular the endothelin receptor antagonist or ambrisentan; and (c) subsequently sterilizing the resulting solution. Step (a) of the process of the invention may comprise of contacting all ingredients at once or it may comprise contacting the ingredients in sequential order, whereby the one or more steps can proceed at the same temperature or at different temperatures. For example, the ingredients that easily dissolve in the solvent at room temperature can be contacted at room temperature first, and subsequently the temperature can be raised, e.g. to 50° C., after which the lowly soluble compounds are added, e.g. the endothelin receptor antagonist such as ambrisentan. Step (b) may proceed until no solid particles can be discerned visually or through analytical techniques. The sterilization of step (c) of the process can be conducted using any sterilization technique known in the art such as filtration and autoclave sterilization. […]

porcine kidneys = test: Reperfusion of porcine kidneys following ischemic injury with endothelin-1 challenge; design: species or system Landrace cross female pigs; conditions: treated kidneys, ambrisentan 150 μg/l
Procedure: All experiments were undertaken in accordance with the Home Office animals (Scientific Procedures) Act 1986. Ten kidneys were retrieved from 5 Landrace cross female pigs weighing approximately 50 kg. Two pairs of kidneys underwent 20 minutes of warm ischaemic injury and were then flushed with 500 m1 of UW solution at 4° C. and stored on ice for 18 hours. After 18 hours cold storage, kidneys were prepared and flushed with 100 m1 of Ringer's solution 4° C. with or without liquid composition of Example 1 which is diluted to an ambrisentan concentration of 150 μg/l. They were then left at room temperature for 20 minutes. The remaining three pairs of kidneys were retrieved after 10 minutes of warm ischaemia and stored on ice for 6 hours. They were prepared and flushed as previously described then left at room temperature for 10 minutes before reperfusion.
Kidneys were perfused with 1 liter of diluted whole autologous heparinized blood at 38.0° C. for 6 hours to assess renal function and injury. 1000 μmol/l of creatinine (Sigma-Aldrich) was added to the circuit. In the treated kidneys the ambrisentan-containing liquid composition as described above (150 μg/l) was added to the reperfusion circuit 10 minutes before the start of reperfusion. In the control and treated kidneys after 2 h 50 min of reperfusion, endothelin-1 (Sigma-Aldrich) was added to the arterial line of reperfusion circuit to achieve a concentration of (20 pg/ml). A sample of the perfusate was taken from the renal vein during the post preservation flush. Perfusion data was recorded after 30 minutes of reperfusion then at each hour. Plasma and urine samples were taken pre-reperfusion, 30 minutes after reperfusion, then at hourly time points to measure renal function.

healthy human subjects = test: 24-hour intravenous ambrisentan infusion in healthy human subjects: urine output, water balance, free water clearance; type: in vivo
Procedure: A study was performed to determine whether lower concentrations of ambrisentan in blood are less likely to produce renal side effects as those seen with current concentrations achieved with the current commercial presentation of ambrisentan. In this study a liquid composition of ambrisentan at a concentration of 5 mg/mL was administered to 20 healthy human subjects at varying rates of administration in order to achieve different ambrisentan concentrations in blood and over a period of 24 hours. Target concentrations in the low dose group were 20 and 40 ng/mL (Group A) after 4 hours and 16 hours respectively, and 80 and 160 ng/mL in the high dose group (Group B) after 4 hours and 16 hours respectively. […] Steady state for each target concentration was maintained for at least 8 hours prior to increasing the concentration. Ten subjects were assigned to Group A and ten subjects to Group B. Pharmacokinetic and plasma ET-1 samples were collected and analysed at different timepoints for up to 72 hours. Urine was collected for 24 hours and in intervals from 0-2 hours, 2-4 hours, 4-8 hours, 8-12, hours, 12-18 hours and 18-24 hours.
All subjects received a 100 ml/hr infusion of 0.45% physiological solution for 24 hours and ambrisentan was administered in a 250-mL solution of 0.9% of physiological solution over a period of 24 hours. Subjects had free access to water and a normal diet. At a minimum, subjects received through intravenous infusion a total of 2650 mL of water and 223.3 mmol of sodium in the 24-hour period of drug administration.
The effect on urine was consistent throughout the different collection periods of the 24-hour infusion period. Patients in Group A maintained higher urinary output rates throughout the study as compared to Group B. In the Tables Below, Water Balance is the result of subtracting urine volume from intravenous liquid input.
The increase in urine formation (diuresis) was further characterised by determining the effect of ambrisentan on urine composition, specifically urine osmolality.

ETB receptor = biological target: T1, ETB receptor (Homo sapiens, UniProt P24530); test: Plasma endothelin-1 as measure of ETB receptor blockade in healthy human subjects; type: in vivo; conditions: Group B (high dose, target 80 and 160 ng/mL)
T1 construct: from tissue; host or cells: living healthy human subjects (in vivo study; plasma endothelin-1 measured)
T1 sequence (P24530 27-442): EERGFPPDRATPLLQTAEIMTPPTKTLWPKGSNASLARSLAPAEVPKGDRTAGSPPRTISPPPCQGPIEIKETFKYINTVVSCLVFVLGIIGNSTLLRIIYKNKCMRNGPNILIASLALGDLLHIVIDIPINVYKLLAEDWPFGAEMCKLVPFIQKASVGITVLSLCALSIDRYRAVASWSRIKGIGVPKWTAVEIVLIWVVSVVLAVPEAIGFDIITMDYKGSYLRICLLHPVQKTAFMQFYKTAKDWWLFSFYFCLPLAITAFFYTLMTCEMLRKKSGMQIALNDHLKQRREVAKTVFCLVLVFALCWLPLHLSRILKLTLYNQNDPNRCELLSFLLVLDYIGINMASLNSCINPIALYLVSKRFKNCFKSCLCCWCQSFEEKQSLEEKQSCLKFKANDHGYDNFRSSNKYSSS
Procedure: Finally, the effect of the different concentrations of ambrisentan on the ETB receptor blockade was determined by measuring plasma endothelin-1 at different timepoints of the study.

[2] = human studies, ambrisentan 5 and 10 mg/day; cited from earlier work
[3] = Raina et al; cited from earlier work
[4] = time 180 min (endothelin-1 20 pg/ml added after 2 h 50 min)
[5] = time 240 min (after endothelin-1)
[6] = time 300 min (after endothelin-1)
[7] = time 360 min (after endothelin-1)

Q: Which “stability on autoclave sterilization” value [1] does the source give for COC(c1ccccc1)(c1ccccc1)[C@H](Oc1nc(C)cc(C)n1)C(=O)O [ambrisentan] here?
A: Its value is “can decompose”.

Q: What about the Oxygen consumption (porcine kidneys; 1 h of reperfusion) of the same molecule?
A: Its Oxygen consumption is 63%.

Q: And the Oxygen consumption (porcine kidneys; 3 h of reperfusion)?
A: Its Oxygen consumption is 64%.

Q: And the Oxygen consumption (porcine kidneys; 6 h of reperfusion)?
A: Its Oxygen consumption is 55%.

Q: And the Renal blood flow (porcine kidneys; time 0 min)?
A: Its Renal blood flow is 45 ml/min/100 g.

Q: What about the Renal resistance (porcine kidneys; time 0 min) of the same molecule?
A: Its Renal resistance is 1.22 mmHg/min/100 g.

Q: And the Urine flow (porcine kidneys; time 0.5 h)?
A: Its Urine flow is 148 mL.

Q: What about the Renal blood flow (porcine kidneys; time 30 min) of the same molecule?
A: The Renal blood flow was 79 ml/min/100 g.

Q: And the Renal resistance (porcine kidneys; time 30 min)?
A: The Renal resistance was 0.58 mmHg/min/100 g.

Q: What about the Urine flow (porcine kidneys; time 1 h) of the same molecule?
A: Its Urine flow is 124 mL.

Q: What about the Renal blood flow (porcine kidneys; time 60 min) of the same molecule?
A: Its Renal blood flow is 84 ml/min/100 g.

Q: What about the Renal resistance (porcine kidneys; time 60 min) of the same molecule?
A: The Renal resistance was 0.55 mmHg/min/100 g.

Q: And the Renal blood flow (porcine kidneys; time 120 min)?
A: The Renal blood flow was 85 ml/min/100 g.

Q: And the Renal resistance (porcine kidneys; time 120 min)?
A: Its Renal resistance is 0.56 mmHg/min/100 g.

Q: And the Urine flow (porcine kidneys; time 2 h)?
A: The Urine flow was 116 mL.

Q: What about the Urine flow (porcine kidneys; time 3 h) of the same molecule?
A: The Urine flow was 80 mL.

Q: What about the Renal blood flow (porcine kidneys; [4]) of the same molecule?
A: Its Renal blood flow is 85 ml/min/100 g.

Q: And the Renal resistance (porcine kidneys; [4])?
A: Its Renal resistance is 0.60 mmHg/min/100 g.

Q: What about the Urine flow (porcine kidneys; time 4 h) of the same molecule?
A: The Urine flow was 62 mL.

Q: What about the Renal blood flow (porcine kidneys; [5]) of the same molecule?
A: Its Renal blood flow is 97 ml/min/100 g.

Q: And the Renal resistance (porcine kidneys; [5])?
A: The Renal resistance was 0.56 mmHg/min/100 g.

Q: And the Urine flow (porcine kidneys; time 5 h)?
A: Its Urine flow is 44 mL.

Q: And the Renal blood flow (porcine kidneys; [6])?
A: The Renal blood flow was 93 ml/min/100 g.

Q: What about the Renal resistance (porcine kidneys; [6]) of the same molecule?
A: The Renal resistance was 0.62 mmHg/min/100 g.

Q: What about the Renal blood flow (porcine kidneys; [7]) of the same molecule?
A: Its Renal blood flow is 77 ml/min/100 g.

Q: And the Renal resistance (porcine kidneys; [7])?
A: Its Renal resistance is 0.78 mmHg/min/100 g.

Q: What about the “Hourly Water Balance, Mean” value (healthy human subjects; Group A (low dose, target 20 and 40 ng/mL), collection period 0 H to 2 H) of the same molecule?
A: The value was -74.58 mL/h.

Q: And the “Hourly Water Balance, Mean” value (healthy human subjects; Group A (low dose, target 20 and 40 ng/mL), collection period 2 H to 4 H)?
A: The value was -76.08 mL/h.

Q: What about the “Hourly Water Balance, Mean” value (healthy human subjects; Group A (low dose, target 20 and 40 ng/mL), collection period 4 H to 8 H) of the same molecule?
A: Its value is -1.08 mL/h.

Q: And the “Hourly Water Balance, Mean” value (healthy human subjects; Group A (low dose, target 20 and 40 ng/mL), collection period 8 H to 12 H)?
A: Its value is -12.58 mL/h.

Q: What about the “Hourly Water Balance, Mean” value (healthy human subjects; Group A (low dose, target 20 and 40 ng/mL), collection period 12 H to 18 H) of the same molecule?
A: Its value is -13.75 mL/h.

Q: And the “Hourly Water Balance, Mean” value (healthy human subjects; Group A (low dose, target 20 and 40 ng/mL), collection period 18 H to 24 H)?
A: The value was -32.92 mL/h.

Q: What about the “Cumulative Water Balance, Mean” value (healthy human subjects; Group A (low dose, target 20 and 40 ng/mL), end of collection 2 H) of the same molecule?
A: The value was -149.17 mL.

Q: And the “Cumulative Water Balance, Mean” value (healthy human subjects; Group A (low dose, target 20 and 40 ng/mL), end of collection 4 H)?
A: The value was -301.33 mL.

Q: What about the “Cumulative Water Balance, Mean” value (healthy human subjects; Group A (low dose, target 20 and 40 ng/mL), end of collection 8 H) of the same molecule?
A: Its value is -305.67 mL.

Q: And the “Cumulative Water Balance, Mean” value (healthy human subjects; Group A (low dose, target 20 and 40 ng/mL), end of collection 12 H)?
A: The value was -356.00 mL.

Q: And the “Cumulative Water Balance, Mean” value (healthy human subjects; Group A (low dose, target 20 and 40 ng/mL), end of collection 18 H)?
A: Its value is -438.50 mL.

Q: And the “Cumulative Water Balance, Mean” value (healthy human subjects; Group A (low dose, target 20 and 40 ng/mL), end of collection 24 H)?
A: Its value is -636.00 mL.

Q: And the “Hourly Water Balance, Mean” value (healthy human subjects; Group B (high dose, target 80 and 160 ng/mL), collection period 0 H to 2 H)?
A: Its value is -6.33 mL/h.

Q: And the “Hourly Water Balance, Mean” value (healthy human subjects; Group B (high dose, target 80 and 160 ng/mL), collection period 2 H to 4 H)?
A: The value was 11.17 mL/h.

Q: What about the “Hourly Water Balance, Mean” value (healthy human subjects; Group B (high dose, target 80 and 160 ng/mL), collection period 4 H to 8 H) of the same molecule?
A: The value was 27.17 mL/h.

Q: And the “Hourly Water Balance, Mean” value (healthy human subjects; Group B (high dose, target 80 and 160 ng/mL), collection period 8 H to 12 H)?
A: The value was 7.17 mL/h.

Q: What about the “Hourly Water Balance, Mean” value (healthy human subjects; Group B (high dose, target 80 and 160 ng/mL), collection period 12 H to 18 H) of the same molecule?
A: The value was -10.08 mL/h.

Q: What about the “Hourly Water Balance, Mean” value (healthy human subjects; Group B (high dose, target 80 and 160 ng/mL), collection period 18 H to 24 H) of the same molecule?
A: Its value is 34.75 mL/h.

Q: And the “Cumulative Water Balance, Mean” value (healthy human subjects; Group B (high dose, target 80 and 160 ng/mL), end of collection 2 H)?
A: Its value is -12.67 mL.

Q: And the “Cumulative Water Balance, Mean” value (healthy human subjects; Group B (high dose, target 80 and 160 ng/mL), end of collection 4 H)?
A: The value was 9.67 mL.

Q: And the “Cumulative Water Balance, Mean” value (healthy human subjects; Group B (high dose, target 80 and 160 ng/mL), end of collection 8 H)?
A: Its value is 118.33 mL.

Q: What about the “Cumulative Water Balance, Mean” value (healthy human subjects; Group B (high dose, target 80 and 160 ng/mL), end of collection 12 H) of the same molecule?
A: Its value is 147.00 mL.

Q: What about the “Cumulative Water Balance, Mean” value (healthy human subjects; Group B (high dose, target 80 and 160 ng/mL), end of collection 18 H) of the same molecule?
A: The value was 86.50 mL.

Q: What about the “Cumulative Water Balance, Mean” value (healthy human subjects; Group B (high dose, target 80 and 160 ng/mL), end of collection 24 H) of the same molecule?
A: The value was 295.00 mL.

Q: And the fluid accumulation (healthy human subjects; ambrisentan concentrations above 100 ng/mL)?
A: The fluid accumulation was “significant accumulation of fluid through the inability to increase urinary output”.

Q: What about the “renal effect, fluid retention” value (healthy human subjects; total ambrisentan lower than 100 ng/mL) of the same molecule?
A: Its value is “have less of an effect on fluid retention”.

Q: What about the “renal effect, fluid retention” value (healthy human subjects; total ambrisentan of about 100 ng/mL and higher) of the same molecule?
A: Its value is “show an adverse renal effect by promoting fluid retention”.

Q: What about the “increase in plasma endothelin-1 from baseline” value (ETB receptor) of the same molecule?
A: Its value is “more than 50%”.

Q: And the plasma levels [2]?
A: The plasma levels was “exceeding 350 ng/ml”.

Q: And the “pharmacokinetic interactions with cyclosporine A and tacrolimus” value [3]?
A: The value was “absence of pharmacokinetic interactions”.
